The values below come from patent publication US20260216294A1, “BETA 2-ADRENERGIC RECEPTOR AGONISTS FOR TREATMENT OR PREVENTION OF MUSCLE WASTING” (ATROGI AB, priority 2023, published 2026).

The subject of assay [1] is L6-myotubes. Briefly: Glucose uptake in differentiated L6-myotubes (Biological Example 2). The assay is classed as cell-based. As to conditions: read-out: Biological example 2 (GU). In a few lines: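 Uptake was quantified as radioactivity in 0.2 M NaOH lysates after a 10 min pulse of 50 nM ^3H-2-deoxyglucose. The pulse followed two agonist exposures at 1×10^−5 M final (isoprenaline or test compound): 1 h 40 min, then 20 min in glucose-free medium after washing. L6 myotubes had been starved overnight in medium with 0.5% fatty-acid-free BSA.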

Assay [2] has as its system L6-myotubes. Briefly: Measurement of intracellular cAMP levels in differentiated L6-myotubes (Biological Example 3). The assay is classed as cell-based. Particulars: 0.25 h. In a few lines:
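Intracellular cAMP quantified by AlphaScreen after ethanol extraction and lysis of L6 myotubes. Cells were serum-starved overnight, then exposed for 15 min to compound (final 1×10^−5 M) or isoprenaline in IBMX-containing (1 mM) HBSS buffer, pH 7.4.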

The mark [3] stands for this setting: glucose uptake, compound at 10 μM relative to isoproterenol at 10 μM.
Where [4] appears, read: intracellular cAMP, compound at 10 μM relative to isoproterenol at 10 μM.
[5] abbreviates: glucose uptake in differentiated L6-myotubes, compound at 10 μM, activity relative to isoproterenol at 10 μM.
The mark [6] stands for this setting: intracellular cAMP in differentiated L6-myotubes, compound at 10 μM, activity relative to isoproterenol at 10 μM.

Some results are limits rather than exact numbers.

`CCC[C@@H](C)NC[C@H](O)c1cccc(F)c1` [Compound 50, (R)-2-[(R)-1-methylbutylamino]-1-(m-fluorophenyl)-1-ethanol]: the Emax at 10 µM in assay [1] (setting [3]) is more than 75%; in assay [2] (setting [4]), less than 25%.
`CO[C@H]1CC[C@H](C[C@]2(C)CC[C@H]([C@@H](O)c3cccc(F)c3)N2)CC1` [Compound 363, (S)-[(2R,5S)-5-methyl-5-{[(1r,4S)-4-methoxycyclohexyl]methyl}-2-pyrrolidinyl](m-fluorophenyl)methanol]: the Emax at 10 µM was more than 75% in assay [1] (setting [5]) and less than 25% in assay [2] (setting [6]).
`CO[C@H]1CC[C@H](C[C@H]2CC[C@H]([C@H](O)c3ccccc3F)N2)CC1` [Compound 339, (R)-[(2R,5R)-5-{[(1r,4R)-4-methoxycyclohexyl]methyl}-2-pyrrolidinyl](o-fluorophenyl)methanol]: the figures for the Emax at 10 µM in assay [1] (setting [5]) and in assay [2] (setting [6]) were more than 75% and less than 25%, respectively.
Regarding `CCCC(C)NCC(O)c1cc(Cl)c(N)c(Cl)c1` (stereo not shown) [Compound 22, 1-(4-amino-3,5-dichlorophenyl)-2-(1-methylbutylamino)-1-ethanol], the Emax at 10 µM in assay [1] (setting [3]) is more than 75%; in assay [2] (setting [4]), 50 to 75%.
`CC(C)(NC[C@H](O)c1cccc(F)c1)[C@H]1CC[C@@H](O)CC1` [Compound 284, (R)-1-(m-fluorophenyl)-2-{1-methyl-1-[(1s,4S)-4-hydroxycyclohexyl]ethylamino}-1-ethanol]: the Emax at 10 µM is 50 to 75% in assay [1] (setting [5]) and less than 25% in assay [2] (setting [6]).
As to `CS(=O)(=O)N(Cc1ccccc1)c1cccc(CC23CCC([C@@H](O)c4cccc(F)c4)(CC2)N3)c1` [Compound 512], the Emax at 10 µM in assay [1] (setting [5]) and in assay [2] (setting [6]) was less than 25% in each case.
Take `CCOC(=O)CO[C@H]1CC[C@H](C(C)(C)NC[C@H](O)c2cccc(F)c2)CC1` [Compound 398, ethyl[[(1R,4r)-4-{1-[(R)-2-(m-fluorophenyl)-2-hydroxyethylamino]-1-methylethyl}cyclohexyloxy]]acetate]: the Emax at 10 µM in assay [1] (setting [5]) was more than 75%; in assay [2] (setting [6]) it was less than 25%.
Consider `COC(=O)[C@H]1CC[C@@H](CCC(C)(C)NC[C@H](O)c2cccc(F)c2)CC1` [Compound 351, methyl (1S,4s)-4-{3-[(R)-2-(m-fluorophenyl)-2-hydroxyethylamino]-3-methylbutyl} cyclohexanecarboxylate], for which the Emax at 10 µM was more than 75% in assay [1] (setting [5]) and 25 to 50% in assay [2] (setting [6]).
For the compound `CC(C)(C[C@H]1CC[C@@H](NC(=O)C2CCC2)CC1)NC[C@H](O)c1cccc(F)c1` [Compound 448], the figures for the Emax at 10 µM in assay [1] (setting [5]) and in assay [2] (setting [6]) were 50 to 75% and less than 25%, respectively.
The matching figures for `CO[C@H]1CC[C@@H](CCCNC[C@H](O)c2cccc(F)c2)CC1` [Compound 258, (R)-1-(m-fluorophenyl)-2-{3-[(1s,4R)-4-methoxycyclohexyl]propylamino}-1-ethanol]: more than 75% and 50 to 75%.
Take `CO[C@H]1CC[C@H](CCC(C)(C)NC[C@H](O)c2cncc(F)c2)CC1` [Compound 267, (R)-2-{1,1-dimethyl-3-[(1r,4S)-4-methoxycyclohexyl]propylamino}-1-(5-fluoro-3-pyridyl)-1-ethanol]: the values for the Emax at 10 µM in assay [1] (setting [5]) and in assay [2] (setting [6]) were 25 to 50% and less than 25%, respectively.
Consider `CO[C@@H]1CCC[C@H](C(C)(C)NC[C@H](O)c2cccc(F)c2)C1` [Compound 255, (R)-2-{1-[(1S,3R)-3-methoxycyclohexyl]-1-methylethylamino}-1-(m-fluorophenyl)-1-ethanol], for which the Emax at 10 µM in assay [1] (setting [5]) is more than 75%; in assay [2] (setting [6]), less than 25%.
The matching figures for `CC(C)(C[C@H]1CC[C@H](NC(=O)C(C)(C)C)CC1)NC[C@H](O)c1cccc(F)c1` [Compound 429]: more than 75% and 25 to 50%.
Turning to `CC(C)(C)NCC(O)c1ccncc1O` (stereo not shown) [Compound 134, 4-[2-(tert-butylamino)-1-hydroxyethyl]-3-pyridinol], the Emax at 10 µM is more than 75% in assay [1] (setting [3]) and less than 25% in assay [2] (setting [4]).
In the case of `CC12CCC([C@H](O)c3cncc(F)c3)(CC1)N2` [Compound 185, (R)-(5-fluoro-3-pyridyl)(4-methyl-7-azabicyclo[[2.2.1]]hept-1-yl)methanol], the Emax at 10 µM was more than 75% in assay [1] (setting [3]) and less than 25% in assay [2] (setting [4]).
Take `CCCC(C)NCC(O)c1ccc(O)c(Cl)c1` (stereo not shown) [Compound 19, 1-(3-chloro-4-hydroxyphenyl)-2-(1-methylbutylamino)-1-ethanol]: the results for the Emax at 10 µM in assay [1] (setting [3]) and in assay [2] (setting [4]) were 25 to 50% and less than 25%, respectively.
Turning to `CC12CC(C1)[C@@H]([C@@H](O)c1cccc(N)c1F)N2` [Compound 242, (S)-{(S)-1-methyl-2-azabicyclo[[2.1.1]]hex-3-yl}(3-amino-2-fluorophenyl)methanol], the Emax at 10 µM was 50 to 75% in assay [1] (setting [5]) and less than 25% in assay [2] (setting [6]).
With `CC(C)(C)NC[C@H](O)c1cccc(N)c1F` [Compound 91, (R)-1-(3-amino-2-fluorophenyl)-2-(tert-butylamino)-1-ethanol], the Emax at 10 µM in assay [1] (setting [3]) is more than 75%; in assay [2] (setting [4]) it was 25 to 50%.
On to `CCCCNCC(O)c1ccc(F)c(F)c1` (stereo not shown) [Compound 56, 2-(butylamino)-1-(3,4-difluorophenyl)-1-ethanol], for which the Emax at 10 µM in assay [1] (setting [3]) is 50 to 75%; in assay [2] (setting [4]), less than 25%.
As to `CO[C@H]1CC[C@H](CNC[C@H](O)c2cccc(F)c2)CC1` [Compound 228, (R)-1-(m-fluorophenyl)-2-({[(1r,4R)-4-methoxycyclohexyl]methyl}amino)-1-ethanol], the Emax at 10 µM in assay [1] (setting [5]) is 50 to 75%; in assay [2] (setting [6]) it was less than 25%.
On to `CC1(C)CCC[C@@H]([C@@H](O)c2cccc(F)c2)N1` [Compound 191], for which the Emax at 10 µM in assay [1] (setting [3]) was 25 to 50%; in assay [2] (setting [4]), less than 25%.
The matching figures for `CCC[C@H]1CCC[C@H]([C@H](O)c2cc(F)cc(F)c2)N1` [Compound 68]: 50 to 75% and less than 25%.
With `CO[C@H]1CC[C@@H](C(C)(C)NC[C@H](O)c2cncc(F)c2)CC1` [Compound 252, (R)-1-(5-fluoro-3-pyridyl)-2-{1-methyl-1-[(1s,4S)-4-methoxycyclohexyl]ethylamino}-1-ethanol], the Emax at 10 µM in assay [1] (setting [5]) and in assay [2] (setting [6]) was less than 25% each time.
On to `CCC[C@@H]1CC[C@H]([C@H](O)c2cccc(Cl)c2)N1` [Compound 141, (R)-[(2R,5R)-5-propyl-2-pyrrolidinyl](m-chlorophenyl)methanol], for which the results for the Emax at 10 µM in assay [1] (setting [3]) and in assay [2] (setting [4]) were 50 to 75% and less than 25%, respectively.
Regarding `CC(C)(C[C@H]1CC[C@@H](C#N)CC1)NC[C@H](O)c1cccc(F)c1` [Compound 399, (1S,4s)-4-{2-[(R)-2-(m-fluorophenyl)-2-hydroxyethylamino]-2-methylpropyl} cyclohexanecarbonitrile], the Emax at 10 µM in assay [1] (setting [5]) is more than 75%; in assay [2] (setting [6]), 25 to 50%.
On to `CO[C@H]1CC[C@H](C[C@@H]2CC[C@H]([C@@H](O)c3ccccc3F)N2)CC1` [Compound 336, (S)-[(2R,5S)-5-{[(1r,4S)-4-methoxycyclohexyl]methyl}-2-pyrrolidinyl] (o-fluorophenyl)methanol], for which the values for the Emax at 10 µM in assay [1] (setting [5]) and in assay [2] (setting [6]) were 25 to 50% and less than 25%, respectively.
As to `CC(C)(C[C@H]1CC[C@H](NC(=O)C2CCC2)CC1)NC[C@H](O)c1cccc(F)c1` [Compound 431], the figures for the Emax at 10 µM in assay [1] (setting [5]) and in assay [2] (setting [6]) were more than 75% and 50 to 75%, respectively.
Regarding `CC1(C)C[C@H]([C@@H](O)c2cccc(Cl)c2)N1` [Compound 233, (S)-[(R)-4,4-dimethyl-2-azetidinyl](m-chlorophenyl)methanol], the Emax at 10 µM in assay [1] (setting [5]) and in assay [2] (setting [6]) was less than 25% throughout.
On to `CC12CC(C1)[C@H]([C@H](O)c1cccc(N)c1F)N2` [Compound 241, (R)-{(R)-1-methyl-2-azabicyclo[2.1.1]hex-3-yl}(3-amino-2-fluorophenyl)methanol], for which the values for the Emax at 10 µM in assay [1] (setting [5]) and in assay [2] (setting [6]) were more than 75% and less than 25%, respectively.
As to `CC12CC(C1)[C@@H]([C@H](O)c1cccc(N)c1F)N2` [Compound 244, (R)-{(S)-1-methyl-2-azabicyclo[[2.1.1]]hex-3-yl}(3-amino-2-fluorophenyl)methanol], the Emax at 10 µM in assay [1] (setting [5]) was 50 to 75%; in assay [2] (setting [6]) it was less than 25%.
As to `O[C@@H](CNC[C@H]1CC[C@@H](O)CC1)c1cccc(F)c1` [Compound 268, (R)-1-(m-fluorophenyl)-2-({[(1s,4S)-4-hydroxycyclohexyl]methyl}amino)-1-ethanol], the Emax at 10 µM in assay [1] (setting [5]) is 25 to 50%; in assay [2] (setting [6]) it was less than 25%.
On to `CCCCNCC(O)c1cc(O)cc(O)c1` (stereo not shown) [Compound 26, 5-[2-(butylamino)-1-hydroxyethyl]resorcinol], for which the Emax at 10 µM in assay [1] (setting [3]) was 50 to 75%; in assay [2] (setting [4]), less than 25%.
For the compound `C[C@H]1CC[C@@H]([C@@H](O)c2ccccc2)N1` (racemic) [Compound 39, Racemic mixture of (R)-[(2R,5R)-5-methyl-2-pyrrolidinyl] phenylmethanol and (S)-[(2S,5S)-5-methyl-2-pyrrolidinyl] phenylmethanol], the Emax at 10 µM in assay [1] (setting [3]) is 50 to 75%; in assay [2] (setting [4]) it was less than 25%.
As for `CC1(C)C[C@@H]([C@H](O)c2ccccc2F)N1` [Compound 202, (R)-[(S)-4,4-dimethyl-2-azetidinyl](o-fluorophenyl)methanol], the Emax at 10 µM in assay [1] (setting [5]) and in assay [2] (setting [6]) was less than 25% in each case.
Take `Oc1ccc(C(O)CNC2CCCC2)cc1` (stereo not shown) [Compound 10, p-[2-(cyclopentylamino)-1-hydroxyethyl]phenol]: the Emax at 10 µM in assay [1] (setting [3]) was 50 to 75%; in assay [2] (setting [4]), less than 25%.
